Where “and” joins values, the source holds several entries; their conditions need not be identical. Equal values may be shown once.

The experiment concerns SARS-CoV-2 B.1.1.7 (alpha variant). The experiment is classed as cell-based. The settings on record: 3 µM.

On to `N#C[C@@]1(c2ccc3c(N)ncnn23)O[C@H](CO)[C@@H](O)[C@H]1O` [GS-441524], for which the “Log vRNA” value was 4 and 4.2 and 4.3.
